Experimental data taken from ChEMBL document CHEMBL1131612, “6-Amino-2-(4-fluorophenyl)-4-methoxy-3- (4-pyridyl)-1H-pyrrolo[2, 3-b]pyridine (RWJ 68354): a potent and selective p38 kinase inhibitor” (J Med Chem, 1998).

Assays:
[1] = target: T1, Prostaglandin G/H synthase 1 (Homo sapiens, UniProt P23219); assay: Inhibition of Prostaglandin G/H synthase 1 at 5 uM
[2] = target: Mitogen-activated protein kinase 1 (Homo sapiens) (UniProt P28482); assay: Inhibition of Mitogen-activated protein kinase 1 (ERK-2 enzyme) at 10 uM
Sequence of Mitogen-activated protein kinase 1 (Homo sapiens) (P28482 whole entry): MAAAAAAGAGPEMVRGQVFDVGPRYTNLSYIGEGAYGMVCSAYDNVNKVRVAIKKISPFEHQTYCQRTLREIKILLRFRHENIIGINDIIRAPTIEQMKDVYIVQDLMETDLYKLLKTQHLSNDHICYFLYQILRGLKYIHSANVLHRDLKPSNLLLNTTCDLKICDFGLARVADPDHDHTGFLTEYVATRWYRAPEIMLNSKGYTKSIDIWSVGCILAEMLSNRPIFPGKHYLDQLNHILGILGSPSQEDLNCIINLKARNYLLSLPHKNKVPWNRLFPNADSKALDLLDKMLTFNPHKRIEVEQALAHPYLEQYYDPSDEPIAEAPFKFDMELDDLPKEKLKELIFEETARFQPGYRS

[3] = target: T1, Prostaglandin G/H synthase 1; assay: Inhibition of Prostaglandin G/H synthase 1 at 5 uM (Inactive)
[4] = target: cAMP-dependent protein kinase (PKA) (Homo sapiens) (UniProt P22694+P17612+P22612); assay: Inhibition of Protein kinase A at 5 uM; assay type: protein assay
[5] = target: Proto-oncogene tyrosine-protein kinase Src (Homo sapiens) (UniProt P12931); assay: Inhibition of c-Src tyrosine kinase at 5 uM
Sequence of Proto-oncogene tyrosine-protein kinase Src (Homo sapiens) (P12931 2-536 limits assumed): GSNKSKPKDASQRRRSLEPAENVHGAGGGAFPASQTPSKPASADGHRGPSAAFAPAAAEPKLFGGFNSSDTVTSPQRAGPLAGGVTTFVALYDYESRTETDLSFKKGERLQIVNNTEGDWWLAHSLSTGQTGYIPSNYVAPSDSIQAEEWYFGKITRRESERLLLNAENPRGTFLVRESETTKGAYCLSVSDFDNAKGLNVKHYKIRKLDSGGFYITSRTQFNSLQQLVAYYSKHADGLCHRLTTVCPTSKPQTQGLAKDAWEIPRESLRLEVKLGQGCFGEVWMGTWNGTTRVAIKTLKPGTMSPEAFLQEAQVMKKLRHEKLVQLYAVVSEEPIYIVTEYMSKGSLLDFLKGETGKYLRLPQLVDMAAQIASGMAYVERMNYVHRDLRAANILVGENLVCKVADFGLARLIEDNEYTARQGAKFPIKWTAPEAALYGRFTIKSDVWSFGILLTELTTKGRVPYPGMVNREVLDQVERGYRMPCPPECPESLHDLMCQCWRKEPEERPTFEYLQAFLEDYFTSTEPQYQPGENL

animal or person [6] = conditions: Mus musculus, read-out: Inhibition
animal or person [7] = conditions: Mus musculus, read-out: Inhibition; remark: listed apart in the source
PBMC [8] = assay: cells; conditions: Homo sapiens
Description: Inhibition of LPS-stimulated TH+NF-alphs production by human peripheral blood mononuclear cells (PBMCs)

[9] = Percent inhibition of LPS-stimulated TNF-alpha release in fasted BALB/cJ mice at 10 mg/kg; assay type: functional; conditions: Mus musculus
[10] = Percent inhibition of LPS-stimulated TNF-alpha release in fasted BALB/cJ mice at 25 mg/kg; assay type: functional; conditions: Mus musculus
PBMC [11] = assay: cells; assay type: functional, cell-based; conditions: Homo sapiens

T1 sequence (P23219 whole entry): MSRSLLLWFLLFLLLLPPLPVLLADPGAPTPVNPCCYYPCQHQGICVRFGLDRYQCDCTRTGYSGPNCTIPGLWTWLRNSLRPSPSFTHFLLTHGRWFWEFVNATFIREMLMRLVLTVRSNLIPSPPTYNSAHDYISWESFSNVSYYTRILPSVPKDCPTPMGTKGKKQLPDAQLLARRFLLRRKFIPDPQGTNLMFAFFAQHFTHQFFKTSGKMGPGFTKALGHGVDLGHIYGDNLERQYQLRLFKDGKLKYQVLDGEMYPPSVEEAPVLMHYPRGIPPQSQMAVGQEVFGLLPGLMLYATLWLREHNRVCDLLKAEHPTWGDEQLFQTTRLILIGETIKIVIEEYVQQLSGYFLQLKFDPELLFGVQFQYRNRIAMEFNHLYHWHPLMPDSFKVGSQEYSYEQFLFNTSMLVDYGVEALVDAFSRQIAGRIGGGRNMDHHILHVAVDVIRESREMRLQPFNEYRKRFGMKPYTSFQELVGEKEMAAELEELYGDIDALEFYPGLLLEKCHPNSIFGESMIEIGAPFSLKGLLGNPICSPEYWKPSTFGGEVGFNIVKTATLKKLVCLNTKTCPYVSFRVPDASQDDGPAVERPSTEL

Structure (SMILES) | IC50 [1] [nM] | inhibition [2] [%] | IC50 [3] | inhibition [4] [%] | inhibition [5] [%] | inhibition in vivo at 10 mg/kg (animal or person [6]) [%] | inhibition in vivo at 25 mg/kg (animal or person [7]) [%] | IC50 (PBMC [8]) [nM] | inhibition in vivo at 10 mg/kg [9] [%] | inhibition in vivo at 25 mg/kg [10] [%] | IC50 (PBMC [11]) [nM]
C[S+]([O-])c1ccc(-c2nc(-c3ccncc3)c(-c3ccc(F)cc3)[nH]2)cc1 (stereo not drawn) [SB-203580] | > 5000 |  |  |  |  |  |  |  |  |  | 
COc1cc(N)[nH]c2nc(-c3ccc(F)cc3)c(-c3ccncc3)c1-2 |  | 23 | Not Active | 0 | 43 | 85 | 99 |  |  |  | 
COc1cccc(COc2cc(N)[nH]c3nc(-c4ccc(F)cc4)c(-c4ccncc4)c2-3)c1 |  |  |  | 0 | 58 |  |  | 1.5 |  |  | 
Nc1ccc2c(-c3ccncc3)c(-c3ccc(F)cc3)[nH]c2n1 |  | 0 | Not Active | 16 | 63 |  |  | 37 | 73 | 98 | 450
CCCCOc1cc(N)[nH]c2nc(-c3ccc(F)cc3)c(-c3ccncc3)c1-2 |  |  | Not Active | 0 | 18 |  |  | 4 | 27 | 71 | 
C[S+]([O-])c1ccc(-c2nc(-c3ccc(F)cc3)c(-c3ccncc3)[nH]2)cc1 (stereo not drawn) [SB-203580] |  | 22 |  | 0 | 54 |  |  |  | 33 | 83 | 
Nc1cc(OCc2ccccc2)c2c(-c3ccncc3)c(-c3ccc(F)cc3)[nH]c2n1 |  |  | Not Active | 0 | 19 |  |  | 0.91 | 11 | 86 | 
Nc1cc(OCCCc2ccccc2)c2c(-c3ccncc3)c(-c3ccc(F)cc3)[nH]c2n1 |  |  |  | 0 | 3 |  |  | 9 |  |  | 
